Source: ChEMBL document CHEMBL1143351 (J Med Chem, 2009)
One block for each compound: values may come before it.

Key:
Nitric oxide synthase 1 = Nitric oxide synthase 1 (Rattus norvegicus, UniProt P29476)
Nitric oxide synthase 3 = molecular target: T1, Nitric oxide synthase 3 (Bos taurus, UniProt P29473)
T1 sequence (P29473 whole entry): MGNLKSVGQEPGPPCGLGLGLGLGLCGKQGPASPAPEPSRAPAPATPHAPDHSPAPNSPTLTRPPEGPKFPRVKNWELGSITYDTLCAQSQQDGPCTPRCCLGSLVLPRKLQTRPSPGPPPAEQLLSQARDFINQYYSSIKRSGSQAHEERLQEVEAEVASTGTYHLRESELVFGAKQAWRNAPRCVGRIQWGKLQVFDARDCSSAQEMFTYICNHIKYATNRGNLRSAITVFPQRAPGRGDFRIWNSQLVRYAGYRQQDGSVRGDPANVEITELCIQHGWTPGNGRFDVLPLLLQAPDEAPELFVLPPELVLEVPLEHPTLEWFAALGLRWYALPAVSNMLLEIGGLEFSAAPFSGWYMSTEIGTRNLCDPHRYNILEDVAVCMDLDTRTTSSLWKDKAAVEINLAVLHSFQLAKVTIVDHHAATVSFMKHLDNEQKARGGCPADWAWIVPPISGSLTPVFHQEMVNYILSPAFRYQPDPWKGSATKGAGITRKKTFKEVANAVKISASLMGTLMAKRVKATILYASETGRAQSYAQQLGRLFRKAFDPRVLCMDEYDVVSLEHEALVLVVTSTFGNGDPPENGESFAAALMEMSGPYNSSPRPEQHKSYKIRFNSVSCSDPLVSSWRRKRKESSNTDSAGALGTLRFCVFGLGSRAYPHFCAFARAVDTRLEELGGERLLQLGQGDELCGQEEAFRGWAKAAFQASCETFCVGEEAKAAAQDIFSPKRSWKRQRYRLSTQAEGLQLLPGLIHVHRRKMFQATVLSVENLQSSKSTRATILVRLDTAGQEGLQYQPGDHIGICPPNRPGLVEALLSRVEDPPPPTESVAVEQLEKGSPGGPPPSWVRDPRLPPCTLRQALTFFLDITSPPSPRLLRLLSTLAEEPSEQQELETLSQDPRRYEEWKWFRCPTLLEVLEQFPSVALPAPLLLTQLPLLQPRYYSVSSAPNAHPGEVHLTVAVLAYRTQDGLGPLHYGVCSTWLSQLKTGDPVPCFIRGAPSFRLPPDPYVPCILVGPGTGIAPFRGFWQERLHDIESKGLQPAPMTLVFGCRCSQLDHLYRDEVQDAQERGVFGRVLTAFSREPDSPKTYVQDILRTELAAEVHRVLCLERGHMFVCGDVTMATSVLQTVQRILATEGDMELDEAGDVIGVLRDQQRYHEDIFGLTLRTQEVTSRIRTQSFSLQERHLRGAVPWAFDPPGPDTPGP

[1] = molecular target: T2, Nitric oxide synthase, inducible (Mus musculus, UniProt P29477)
T2 sequence (P29477 whole entry): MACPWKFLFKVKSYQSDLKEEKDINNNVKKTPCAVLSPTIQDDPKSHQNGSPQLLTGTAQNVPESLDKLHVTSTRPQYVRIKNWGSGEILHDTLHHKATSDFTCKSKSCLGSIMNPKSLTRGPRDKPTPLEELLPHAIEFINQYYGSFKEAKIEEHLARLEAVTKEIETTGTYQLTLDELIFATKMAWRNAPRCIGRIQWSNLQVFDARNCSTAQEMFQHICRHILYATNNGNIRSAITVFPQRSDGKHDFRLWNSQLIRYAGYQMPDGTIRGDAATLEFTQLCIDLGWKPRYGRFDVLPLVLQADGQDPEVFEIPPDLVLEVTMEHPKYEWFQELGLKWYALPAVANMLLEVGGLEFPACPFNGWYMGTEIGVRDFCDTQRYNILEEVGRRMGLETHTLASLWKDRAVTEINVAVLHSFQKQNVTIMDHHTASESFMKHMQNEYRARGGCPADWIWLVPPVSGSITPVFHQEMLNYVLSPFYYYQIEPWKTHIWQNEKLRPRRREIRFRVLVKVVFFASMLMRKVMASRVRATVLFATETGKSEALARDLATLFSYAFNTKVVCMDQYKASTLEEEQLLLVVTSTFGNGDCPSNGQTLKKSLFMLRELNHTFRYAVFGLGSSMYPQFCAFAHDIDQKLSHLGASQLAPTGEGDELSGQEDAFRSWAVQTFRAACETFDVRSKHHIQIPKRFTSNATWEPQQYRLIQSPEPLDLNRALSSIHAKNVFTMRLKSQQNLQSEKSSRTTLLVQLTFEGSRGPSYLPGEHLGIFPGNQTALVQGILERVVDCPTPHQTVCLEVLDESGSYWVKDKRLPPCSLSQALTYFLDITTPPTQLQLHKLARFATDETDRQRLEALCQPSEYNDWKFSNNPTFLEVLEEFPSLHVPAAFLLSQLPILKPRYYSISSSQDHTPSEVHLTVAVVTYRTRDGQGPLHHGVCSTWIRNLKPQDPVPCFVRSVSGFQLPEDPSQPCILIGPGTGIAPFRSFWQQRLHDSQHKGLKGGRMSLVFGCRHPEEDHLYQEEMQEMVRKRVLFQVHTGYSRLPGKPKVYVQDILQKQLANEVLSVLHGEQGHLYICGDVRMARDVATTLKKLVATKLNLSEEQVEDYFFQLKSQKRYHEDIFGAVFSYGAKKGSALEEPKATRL

Sequence of Nitric oxide synthase 1 (P29476 whole entry): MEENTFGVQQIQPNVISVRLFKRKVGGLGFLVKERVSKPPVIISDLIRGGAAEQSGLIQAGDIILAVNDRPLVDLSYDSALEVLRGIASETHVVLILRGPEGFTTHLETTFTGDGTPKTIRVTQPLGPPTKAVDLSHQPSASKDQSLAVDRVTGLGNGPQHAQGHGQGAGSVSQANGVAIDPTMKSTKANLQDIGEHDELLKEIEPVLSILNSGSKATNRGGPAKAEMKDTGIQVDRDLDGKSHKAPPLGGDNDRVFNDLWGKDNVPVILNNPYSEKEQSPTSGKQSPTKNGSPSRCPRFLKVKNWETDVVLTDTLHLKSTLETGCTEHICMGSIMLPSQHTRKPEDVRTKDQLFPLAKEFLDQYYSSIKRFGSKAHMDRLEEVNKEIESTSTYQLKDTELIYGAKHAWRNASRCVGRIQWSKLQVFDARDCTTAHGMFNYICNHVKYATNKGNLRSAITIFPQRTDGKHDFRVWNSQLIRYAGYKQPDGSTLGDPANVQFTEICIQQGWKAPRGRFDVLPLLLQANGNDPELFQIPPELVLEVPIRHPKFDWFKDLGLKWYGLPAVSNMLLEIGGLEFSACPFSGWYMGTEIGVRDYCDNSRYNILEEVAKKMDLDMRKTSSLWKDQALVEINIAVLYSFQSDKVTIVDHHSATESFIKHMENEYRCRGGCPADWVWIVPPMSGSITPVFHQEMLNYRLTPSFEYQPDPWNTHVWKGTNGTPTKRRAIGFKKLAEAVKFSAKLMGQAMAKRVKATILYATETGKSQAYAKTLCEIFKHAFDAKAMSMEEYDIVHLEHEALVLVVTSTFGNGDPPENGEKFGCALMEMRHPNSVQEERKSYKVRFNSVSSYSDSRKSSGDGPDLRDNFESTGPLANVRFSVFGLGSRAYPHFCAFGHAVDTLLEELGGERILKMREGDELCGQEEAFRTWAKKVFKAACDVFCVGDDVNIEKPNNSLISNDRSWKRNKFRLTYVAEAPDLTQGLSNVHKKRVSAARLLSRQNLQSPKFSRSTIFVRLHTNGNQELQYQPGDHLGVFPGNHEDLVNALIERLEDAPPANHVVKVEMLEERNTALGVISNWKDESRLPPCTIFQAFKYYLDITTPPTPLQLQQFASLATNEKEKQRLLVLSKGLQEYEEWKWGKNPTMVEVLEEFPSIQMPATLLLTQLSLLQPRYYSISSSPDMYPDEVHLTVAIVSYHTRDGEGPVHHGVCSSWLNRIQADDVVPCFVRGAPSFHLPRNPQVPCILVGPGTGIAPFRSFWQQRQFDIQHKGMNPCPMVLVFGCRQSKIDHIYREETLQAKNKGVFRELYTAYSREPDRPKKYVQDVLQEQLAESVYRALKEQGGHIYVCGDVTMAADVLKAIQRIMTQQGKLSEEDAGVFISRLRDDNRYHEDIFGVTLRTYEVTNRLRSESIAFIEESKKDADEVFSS

Compound: CC(=O)[C@@H]1C[C@@H](NC(=O)[C@@H](N)CCCNC(=N)N[N+](=O)[O-])CN1
Ki (Nitric oxide synthase 1): 100 nM | Ki (Nitric oxide synthase 3): 128 µM | Ki [1]: 29 µM

Compound: CC(=O)[C@H]1CNC[C@@H]1NC(=O)[C@@H](N)CCCNC(=N)N[N+](=O)[O-]
Ki (Nitric oxide synthase 1): 87 nM | Ki (Nitric oxide synthase 3): 200 µM | Ki [1]: 5.76 µM

Compound: Nc1cccc(C[C@H]2CNC[C@H]2N[C@@H]2CCNC2)n1 (racemic)
Ki (Nitric oxide synthase 1): 1360 nM | Ki (Nitric oxide synthase 3): 424 µM | Ki [1]: 200 µM

Compound: Nc1cccc(C[C@H]2CNC[C@H]2N[C@@H]2CCN(Cc3ccccc3)C2)n1 (racemic)
Ki (Nitric oxide synthase 1): 2740 nM | Ki (Nitric oxide synthase 3): 181 µM | Ki [1]: 425 µM

Compound: Cc1cc(N)nc(C[C@H]2CNC[C@H]2NCCNCc2cccc(C(F)(F)F)c2)c1 (racemic)
Ki (Nitric oxide synthase 1): 206 nM

Compound: Cc1cc(N)nc(C[C@H]2CNC[C@H]2NCCNCc2ccc(Cl)cc2Cl)c1 (racemic)
Ki (Nitric oxide synthase 1): 110 nM | Ki (Nitric oxide synthase 3): 30 µM | Ki [1]: 7.7 µM

Compound: Cc1cc(N)nc(C[C@H]2CNC[C@H]2NC[C@H](C)NCc2ccc(Cl)cc2)c1 (racemic)
Ki (Nitric oxide synthase 1): 136 nM | Ki (Nitric oxide synthase 3): 40 µM | Ki [1]: 12.2 µM

Compound: Cc1cc(C[C@H]2CNC[C@H]2NCCNCc2ccc(Cl)cc2)cc(N)n1 (racemic)
Ki (Nitric oxide synthase 1): 18800 nM | Ki (Nitric oxide synthase 3): 141 µM | Ki [1]: 232 µM

Compound: Nc1cccc(C[C@H]2CNC[C@H]2NC[C@@H](N)Cc2ccccc2)n1 (racemic)
Ki (Nitric oxide synthase 1): 2300 nM | Ki (Nitric oxide synthase 3): 1450 µM | Ki [1]: 297 µM

Compound: Cc1cc(N)nc(C[C@H]2CNC[C@H]2N(C)CCNCc2ccc(Cl)cc2)c1 (racemic)
Ki (Nitric oxide synthase 3): 125 µM

Compound: Nc1cccc(C[C@H]2CNC[C@H]2N[C@H]2CCNC2)n1 (racemic)
Ki (Nitric oxide synthase 1): 1260 nM | Ki (Nitric oxide synthase 3): 243 µM | Ki [1]: 174 µM

Compound: Nc1cccc(C[C@H]2CNC[C@H]2NCCNCc2ccccc2)n1 (racemic)
Ki (Nitric oxide synthase 1): 1180 nM | Ki (Nitric oxide synthase 3): 1450 µM | Ki [1]: 161 µM

Compound: Cc1cc(C[C@H]2CNC[C@H]2NCCNCCc2cccc(F)c2)cc(N)n1 (racemic)
Ki (Nitric oxide synthase 1): 551 nM | Ki (Nitric oxide synthase 3): 164 µM | Ki [1]: 10.6 µM

Compound: Cc1cc(N)nc(C[C@H]2CNC[C@H]2N(C)CCN(C)CCc2cccc(F)c2)c1 (racemic)
Ki (Nitric oxide synthase 1): 1210 nM | Ki (Nitric oxide synthase 3): 48.9 µM | Ki [1]: 56.6 µM

Compound: CN(C)CCN[C@@H]1CNC[C@@H]1Cc1cccc(N)n1 (racemic)
Ki (Nitric oxide synthase 1): 3330 nM | Ki (Nitric oxide synthase 3): 140 µM | Ki [1]: 195 µM

Other lines, results leading:

Ki (Nitric oxide synthase 1): 3340 nM | Ki (Nitric oxide synthase 3): 108 µM | Ki [1]: 222 µM
Compound: Nc1cccc(C[C@H]2CNC[C@H]2N[C@H]2CCN(Cc3ccccc3)C2)n1 (racemic)

Ki (Nitric oxide synthase 1): 159 nM | Ki (Nitric oxide synthase 3): 72 µM | Ki [1]: 9.01 µM
Compound: Cc1cccc(CNCCN[C@@H]2CNC[C@@H]2Cc2cc(C)cc(N)n2)c1 (racemic)

Ki (Nitric oxide synthase 1): 157 nM | Ki (Nitric oxide synthase 3): 41 µM | Ki [1]: 3.56 µM
Compound: Cc1cc(N)nc(C[C@H]2CNC[C@H]2NCCNCc2ccc(Cl)c(Cl)c2)c1 (racemic)

Ki (Nitric oxide synthase 1): 197 nM | Ki (Nitric oxide synthase 3): 84 µM | Ki [1]: 14.1 µM
Compound: Cc1cc(N)nc(C[C@H]2CNC[C@H]2NCCNCc2ccc(C(F)(F)F)cc2)c1 (racemic)

Ki (Nitric oxide synthase 1): 144 nM | Ki (Nitric oxide synthase 3): 130 µM | Ki [1]: 7.97 µM
Compound: Cc1cc(N)nc(C[C@H]2CNC[C@H]2NCCNCc2ccc(F)cc2)c1 (racemic)

Ki (Nitric oxide synthase 1): 27 nM | Ki (Nitric oxide synthase 3): 18 µM | Ki [1]: 4.6 µM
Compound: Cc1cc(N)nc(C[C@H]2CNC[C@H]2NCCNCCc2ccc(F)cc2)c1 (racemic)

Ki (Nitric oxide synthase 1): 326 nM | Ki (Nitric oxide synthase 3): 92.4 µM | Ki [1]: 38.2 µM
Compound: Cc1cc(N)nc(C[C@H]2CNC[C@H]2N(C)CCNCCc2cccc(F)c2)c1 (racemic)

Ki (Nitric oxide synthase 1): 2420 nM | Ki (Nitric oxide synthase 3): 1450 µM | Ki [1]: 238 µM
Compound: Nc1cccc(C[C@H]2CNC[C@H]2NC[C@H](N)Cc2ccccc2)n1 (racemic)
